Source: PMC5318439, “The Novel Toll-Like Receptor 2 Agonist SUP3 Enhances Antigen Presentation and T Cell Activation by Dendritic Cells” (Frontiers in Immunology, 2017)
Where a SMILES comes first, the peptide text is derived from it. The star is where a group is joined. X1 = CCCCCCCCCCCCCCNC(=O)OC[C@H](C*)OC(=O)NCCCCCCCCCCCCCC; Palmitoyl = CCCCCCCCCCCCCCCC(=O)*

Assays:
CD8^+ cDCs [1] = experiment: Cytokine production by purified CD8+ cDCs (ELISA); assay type: cell-based, mice; details: 200 nM, GM-CSF 20 ng/mL, 24 and 48 h
Description: Splenic DCs (5 × 10^5 cells/mL) were stimulated by Pam3 (200 nM), SUP3 (200 nM), or CpG ODN 1668 (20 nM; Adipogen IAX-200-001) in the GM-CSF (20 ng/mL) supplemented medium for indicated periods. Cell culture supernatants were harvested at indicated time points and stored at −40°C. RAW 264.7 cells and GMDCs were stimulated by lipopolysaccharide (LPS) (20 ng/mL; Adipogen IAX-100-013), Pam3, or SUP3 (both at 200 nM) for 24 h. For in vivo administration, Pam3 (2 nmol per mouse), SUP3 (2 nmol per mouse), or LPS (1 µg per mouse) were intravenously (i.v.) injected via tail veins. Serum was obtained through tail vein bleeding and centrifuged after coagulation and stored at −40°C. Cytokines (IL-6, eBioscience 88-7064; TNFα, eBioscience 88-7324; IL-12p40, BioLegend 431604), chemokine (MIP1α, R&D Systems DY450-05), and total IgM (eBioscience, 88-50470) were quantified by ELISA kits following the instructions of manufacturers.
Figure 4 SUP3 stimulated maturation of CD8^+ conventional dendritic cells (cDCs). […] The surface expression of costimulatory and major histocompatibility complex (MHC) molecules were then analyzed by flow cytometry. […] Splenic CD8^+ cDCs were enriched, and surface expression of CD40 and CD86 was analyzed by flow cytometry. […] Supernatants were harvested 24 and 48 h post-stimulation, and cytokines were measured by ELISA. […]

CD8^+ cDCs [2] = experiment: Antigen cross-presentation by splenic CD8+ cDCs to OT-I CD8+ T cells in vitro; assay type: cell-based, mice; details: 200 nM; SUP3 versus Pam3
Description: Antigen presentation assays were performed as previously described ([38]). Briefly, ovalbumin (OVA) (10 µg/mL; Sigma A7641) pulsed cDCs were stimulated with or without TLR agonists for 4 h. OT-I CD8^+ T cells and OT-II CD4^+ T cells were purified and then labeled by carboxyfluorescein diacetate succinimidyl ester (CFSE) (1 µM; Molecular Probes C34554). CD8^+ cDCs were cocultured with OT-I CD8^+ T cells for 60 h, whereas CD11b^+ cDCs were cocultured with OT-II CD4^+ T cells for 96 h, both in the presence of granulocyte-macrophage colony-stimulating factor (GM-CSF) (20 ng/mL; Peprotech 315-03). Proliferated OT-I or OT-II T cells were defined as diluted CFSE signal analyzed by flow cytometry. The numbers of T cells were counted by AccuCheck counting beads (Molecular Probes PCB100). […] Cells were washed twice with cold medium and analyzed by flow cytometry.
Figure 3 SUP3 facilitated cross-presentation of ovalbumin (OVA) antigen by CD8^+ conventional dendritic cells (cDCs) in vitro. […] Cells were washed and cocultured with carboxyfluorescein diacetate succinimidyl ester (CFSE)-labeled OT-I CD8^+ T cells for 60 h and analyzed by flow cytometry. (A) The dividing OT-I cells were measured by reduced level of CFSE-labeling. […] (B) Absolute numbers of proliferated OT-I T cells were calculated. (C) Interferon-γ from the supernatant of coculture was determined by ELISA 24 h later. […]

| Molecule | IL-6 and TNFα production by CD8+ cDCs (CD8^+ cDCs [1]) | enhancement of cross-presentation by CD8+ cDCs in vitro (CD8^+ cDCs [2]) |
| --- | --- | --- |
| Pam3CSK4 [reference compound] | only low levels | comparable |
| CCCCCCCCCCCCCCCC(=O)N[C@@H](CSC[C@@H](COC(=O)NCCCCCCCCCCCCCC)OC(=O)NCCCCCCCCCCCCCC)C(=O)NCC(=O)N[C@@H](CCCCN)C(=O)N[C@@H](CCCCN)C(=O)N[C@@H](CCCCN)C(=O)O [SUP3, (2S,5S,8S,14R,18R)-2,5,8-tris(4-aminobutyl)-4,7,10,13,21-pentaoxo-14-palmitamido-18-((tetradecylcarbamoyl)oxy)-20-oxa-16-thia-3,6,9,12,22-pentaazahexatriacontan-1-oic acid] (Palmitoyl-C(X1)GKKK-OH) | only low levels | comparable |
